What was measured:
SETVI (Foxtail, Green) = experiment: Postemergence herbicidal evaluation; assay type: in vivo, Setaria viridis; conditions: postemergence
Summary of the method: (§1)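 Scores (0–9) reflect plant stand, vigor, malformation, size, chlorosis and general appearance relative to control, read 4 to 5 weeks after treatment and averaged where tests were repeated. Application: about 0.0156–0.500 kg/ha sprayed at 40 psi onto two-week seedlings.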

[1] = tested on: CHEAL (Lambsquarters, Common); experiment: Postemergence herbicidal evaluation; assay type: in vivo, Chenopodium album; conditions: postemergence
Summary of the method: as §1

AMBEL (Ragweed, Common) = experiment: Postemergence herbicidal evaluation; assay type: in vivo, Ambrosia artemisifolia; conditions: postemergence
Summary of the method: as §1

GALAP (Galium) = experiment: Postemergence herbicidal evaluation; assay type: in vivo, Galium aparine; conditions: postemergence
Summary of the method: as §1

ECHCG (Barnyardgrass) = experiment: Postemergence herbicidal evaluation; assay type: in vivo, Echinochloa crus-galli; conditions: postemergence
Summary of the method: as §1

[2] = tested on: GLXMAW (Soybean, Williams); experiment: Postemergence herbicidal evaluation; assay type: in vivo, Glycine max, (L.) Merr. cv Williams; conditions: postemergence
Summary of the method: as §1

CYPSE (Flatsedge) [3] = experiment: Postemergence weed control under flooded paddy conditions; assay type: in vivo, Cyperus serotinus; conditions: postemergence weeds, rated 3 to 4 weeks after treatment
Summary of the method: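 Herbicidal effect is judged by eye on a 0–9 scale versus control, 3–4 weeks after dosing. Dosing is into flood water kept 1.5–3 cm over the soil, at about 0.0313–0.500 kg/ha in aqueous/acetone 50/50 v/v, on 3–5 cm weeds and 1.5–2.5-leaf rice seedlings.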

ORYSAT (Rice, Tebonnet) = experiment: Postemergence herbicidal evaluation; assay type: in vivo, Oryza sativa, (L.) Tebonnet; conditions: postemergence
Summary of the method: as §1

[4] = tested on: SAGPY (Arrowhead (Pygmaea)); experiment: Preemergence weed control under flooded paddy conditions; assay type: in vivo, Sagittaria pygmaea; conditions: rated 3-4 weeks after treatment
Summary of the method: (§2)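 Flooded-pot preemergence screen with silt loam and seeds in the upper 0.5 cm. Dose about 0.0313 to 0.500 kg/ha, delivered into flood water; visual 0-9 score after 3 to 4 weeks.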

CYPSE (Flatsedge) [5] = experiment: as above; assay type: in vivo, Cyperus serotinus; conditions: rated 3-4 weeks after treatment
Summary of the method: as §2

CASOB (Sicklepod) = experiment: Postemergence herbicidal evaluation; assay type: in vivo, Cassia obtusifolia; conditions: postemergence
Summary of the method: as §1

CYPIR (Rice Flatsedge) = experiment: Preemergence weed control under flooded paddy conditions; assay type: in vivo, Cyperus iria; conditions: rated 3-4 weeks after treatment
Summary of the method: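 Ratings on a 0-9 visual scale cover stand, vigor, malformation, size, chlorosis and overall appearance relative to a control, taken three to four weeks post-treatment. Application was into flood water over freshly sown silt loam at roughly 0.0313 to 0.500 kg/ha.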

C=CCN1C(=O)C(CC(=O)NS(=O)(=O)c2ccccc2)SC1=Nc1cc(-n2c(=O)cc(C(F)(F)F)n(C)c2=O)c(F)cc1Cl (stereo not shown) [Compound 101, 3-Allyl-2-{{2-chloro-5-[3,6-dihydro-3-methyl-2,6-dioxo-4-(trifluoromethyl)-1(2H)-pyrimidinyl]-4-fluorophenyl}imino}-4-oxo-N-(phenylsulfonyl)-5-thiazolidineacetamide]
1.0: Herbicidal rating SETVI (SETVI (Foxtail, Green); rate 0.0313 kg/ha) | Herbicidal rating GALAP (GALAP (Galium); rate 0.0313 kg/ha) | Herbicidal rating GALAP (GALAP (Galium); rate 0.0625 kg/ha) | Herbicidal rating ECHCG (ECHCG (Barnyardgrass); rate 0.0156 kg/ha)
4.0: Herbicidal rating CHEAL ([1]; rate 0.0156 kg/ha) | Herbicidal rating CHEAL ([1]; rate 0.0313 kg/ha) | Herbicidal rating CHEAL ([1]; rate 0.0625 kg/ha) | Herbicidal rating ORYSAT (ORYSAT (Rice, Tebonnet); rate 0.0625 kg/ha) | Herbicidal rating ORYSAT (ORYSAT (Rice, Tebonnet); rate 0.1250 kg/ha) | SAGPY herbicidal effect rating ([4]; 0.5000 kg/ha) | CYPIR herbicidal effect rating (CYPIR (Rice Flatsedge); 0.5000 kg/ha)
3.0: Herbicidal rating ECHCG (ECHCG (Barnyardgrass); rate 0.0625 kg/ha) | Herbicidal rating ORYSAT (ORYSAT (Rice, Tebonnet); rate 0.0313 kg/ha) | Herbicidal rating CASOB (CASOB (Sicklepod); rate 0.1250 kg/ha) | CYPIR herbicidal effect rating (CYPIR (Rice Flatsedge); 0.2500 kg/ha)
2.5: Herbicidal rating ORYSAT (ORYSAT (Rice, Tebonnet); rate 0.0156 kg/ha)
9.0: Herbicidal rating AMBEL (AMBEL (Ragweed, Common); rate 0.0156 kg/ha) | Herbicidal rating AMBEL (AMBEL (Ragweed, Common); rate 0.0625 kg/ha) | Herbicidal rating AMBEL (AMBEL (Ragweed, Common); rate 0.1250 kg/ha)
2.0: Herbicidal rating SETVI (SETVI (Foxtail, Green); rate 0.0156 kg/ha) | Herbicidal rating GALAP (GALAP (Galium); rate 0.1250 kg/ha) | Herbicidal rating ECHCG (ECHCG (Barnyardgrass); rate 0.0313 kg/ha) | SAGPY herbicidal effect rating ([4]; 0.2500 kg/ha) | Herbicidal rating CASOB (CASOB (Sicklepod); rate 0.0625 kg/ha)
6.5: Herbicidal rating GLXMAW ([2]; rate 0.1250 kg/ha)
5.0: Herbicidal rating SETVI (SETVI (Foxtail, Green); rate 0.0625 kg/ha) | Herbicidal rating SETVI (SETVI (Foxtail, Green); rate 0.1250 kg/ha) | Herbicidal rating ECHCG (ECHCG (Barnyardgrass); rate 0.1250 kg/ha)
5.5: Herbicidal rating GLXMAW ([2]; rate 0.0156 kg/ha) | Herbicidal rating GLXMAW ([2]; rate 0.0313 kg/ha)
0.0: Herbicidal rating GALAP (GALAP (Galium); rate 0.0156 kg/ha) | Herbicidal rating CYPSE (CYPSE (Flatsedge) [3]; Rate 0.0313 kg/ha) | Herbicidal rating CYPSE (CYPSE (Flatsedge) [3]; Rate 0.0625 kg/ha) | Herbicidal rating CYPSE (CYPSE (Flatsedge) [3]; Rate 0.1250 kg/ha) | Herbicidal rating CYPSE (CYPSE (Flatsedge) [3]; Rate 0.2500 kg/ha) | Herbicidal rating CYPSE (CYPSE (Flatsedge) [3]; Rate 0.5000 kg/ha) | SAGPY herbicidal effect rating ([4]; 0.0313 kg/ha) | SAGPY herbicidal effect rating ([4]; 0.0625 kg/ha) | SAGPY herbicidal effect rating ([4]; 0.1250 kg/ha) | CYPSE herbicidal effect rating (CYPSE (Flatsedge) [5]; 0.0313 kg/ha) | CYPSE herbicidal effect rating (CYPSE (Flatsedge) [5]; 0.0625 kg/ha) | CYPSE herbicidal effect rating (CYPSE (Flatsedge) [5]; 0.1250 kg/ha) | CYPSE herbicidal effect rating (CYPSE (Flatsedge) [5]; 0.2500 kg/ha) | CYPSE herbicidal effect rating (CYPSE (Flatsedge) [5]; 0.5000 kg/ha) | Herbicidal rating CASOB (CASOB (Sicklepod); rate 0.0156 kg/ha) | Herbicidal rating CASOB (CASOB (Sicklepod); rate 0.0313 kg/ha) | CYPIR herbicidal effect rating (CYPIR (Rice Flatsedge); 0.0313 kg/ha) | CYPIR herbicidal effect rating (CYPIR (Rice Flatsedge); 0.0625 kg/ha) | CYPIR herbicidal effect rating (CYPIR (Rice Flatsedge); 0.1250 kg/ha)
7.0: Herbicidal rating CHEAL ([1]; rate 0.1250 kg/ha) | Herbicidal rating AMBEL (AMBEL (Ragweed, Common); rate 0.0313 kg/ha)
6.0: Herbicidal rating GLXMAW ([2]; rate 0.0625 kg/ha)

Source: patent US20020137929A1, “1 - (3-heterocyclylphenyl) isothiourea, -isourea, -guanidine and -amidine herbicidal agents” (Intellectual Property Department, BASF Aktiengesellschaft, priority 1998, published 2002)
